Test results taken from patent US7018989B2, “Chemical compounds” (University College Cardiff Consultants, LTD, priority 1995, dated 2006).
Read-outs that look alike come from different tables or passages of the source.

How the values were obtained:
HIV-2 [1] = assay: Inhibition of HIV-2 in CEM/TK- cells; format: cell-based
Outline: (§1)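 Cells at 5×10^5 per mL were infected with virus at 100 CCID50 per mL and mixed with test compound dilutions. In CEM cultures, giant cell formation was scored microscopically at day 4; in MT-4 cultures, viable cells were counted by trypan blue staining at day 5.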

MT-4 cells = assay: Toxicity to MT-4 cells; format: cell-based, human; settings: read-out: CC50 MT4: CC50 for toxicity to MT-4 cells
Procedure: (§2) Cells were infected with HIV-1 as previously described [Balzarini et al. AIDS (1991), 5, 21–28]. Briefly, 5×10^5 cells per milliliter were infected with HIV-1 or HIV-2 at 100 CCID50 (50% cell culture infective dose) per milliliter of cell suspension. Then 100 μL of the infected cell suspension was transferred to microtiter plate wells and mixed with 100 μL of the appropriate dilutions of the test compounds. After 4 days giant cell formation was recorded microscopically in the HIV-infected cell cultures [CEM], and after 5 days the number of viable cells was determined by trypan blue staining of the HIV-infected cell cultures [MT4].
(§3) The data columns are, in order: • HIV1 MT4: EC50 in μM for inhibition of HIV-1 in MT4 cells. • HIV2 MT4: EC50 in μM for inhibition of HIV-2 in MT4 cells. • CC50 MT4: CC50 in μM for toxicity to MT-4 cells. • HIV1 CEM: EC50 in μM for inhibition of HIV-1 in CEM cells. • HIV2 CEM: EC50 in μM for inhibition of HIV-2 in CEM cells. • HIV2 CEM-TK-: EC50 in μM for inhibition of HIV-2 in CEM/TK^− cells. • CC50 CEM: CC50 in μM for toxicity to CEM cells. • EC50 MSV: EC50 in μM for inhibition of MSV • MCC MSV: Minimum cytotoxic concentration in MSV assay

HIV-2 [2] = assay: Inhibition of HIV-2 in CEM cells (giant cell formation); format: cell-based; settings: read-out: HIV2 CEM: EC50 for inhibition of HIV-2 in CEM cells
Outline: as §1

CEM cells = assay: Toxicity to CEM cells; format: cell-based, human; settings: Table 6; mean of two or more repeat experiments
III-B strain of HIV-1 = assay: microbe, parasite or virus in culture; format: cell-based; settings: for EC50: HIV1 in C8166 cells, Table 3, read-out: Activity EC50
Procedure: (§4) C8166 cells. Cells were grown in RPMI 1640 with 10% calf serum. 4×10^4 cells per microtiter plate well were mixed with 5-fold dilutions of compound prior to addition of 10 CCID50 units of III-B strain of HIV-1 and incubated for 5–7 days (Betbeder et al. Antiviral Chem. Chemother. 1, 241–247, 1990). Formation of syncytia was examined from 2 days post-infection. Culture fluid was collected at 5–7 days and gp120 antigen production measured by ELISA (Mahmood and Hay, J. Immunol. Meth., 151, 9–13, 1992). […] Cell viability of infected and uninfected cells were assessed by the MTT-Formazen method (Pauwels et al. J. Virol. Meth. 20, 309–321, 1988).
(§5) Each assay was carried out in duplicate, on at least two separate occasions, and data quoted are the average of each separate assay.

HIV-1 [3] = assay: microbe, parasite or virus in culture; settings: read-out: HIV1 CEM: EC50 for inhibition of HIV-1 in CEM cells
Outline: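 5×10^5 cells/mL, 100 CCID50/mL virus, + compound dilutions. CEM: giant cells scored microscopically, day 4. MT-4: viability by trypan blue, day 5.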

HIV-1 [4] = assay: Inhibition of HIV-1 in MT4 cells; format: cell-based; settings: read-out: HIV1 MT4: EC50 for inhibition of HIV-1 in MT4 cells
Procedure: as §2, §3

C8166 cells = assay: Toxicity in C8166 cells (MTT-Formazen); format: cell-based; settings: Table 3
Procedure: as §4, §5

HIV-2 [5] = assay: Inhibition of HIV-2 in MT4 cells; format: cell-based; settings: read-out: HIV2 MT4: EC50 for inhibition of HIV-2 in MT4 cells
Procedure: as §2, §3

[6] = Table 6, mean of two or more repeat experiments, read-out: HIV2 CEM-TK-: EC50 for inhibition of HIV-2 in CEM/TK^− cells
[7] = Table 6, mean of two or more repeat experiments
[8] = CEM/TK- cells, HIV-2, read-out: HIV2 CEM-TK-: EC50 for inhibition of HIV-2 in CEM/TK- cells

Row | Structure (SMILES) | EC50 (HIV-2 [1]; [6]) [µM] | CC50 (MT-4 cells; [7]) [µM] | EC50 (HIV-2 [2]; [7]) [µM] | CC50 (CEM cells) [µM] | Selectivity CC50/EC50 × 10^3 (III-B strain of HIV-1) | EC50 (III-B strain of HIV-1) [µM] | EC50 (HIV-1 [3]; [7]) [µM] | EC50 (HIV-1 [4]; [7]) [µM] | CC50 (C8166 cells) [µM] | EC50 (HIV-2 [5]; [7]) [µM] | EC50 (HIV-2 [1]; [8]) [µM] | CC50 (MT-4 cells; MT-4 cells) [µM] | EC50 (HIV-2 [2]; CEM cells, HIV-2) [µM] | EC50 (HIV-1 [3]; CEM cells, HIV-1) [µM] | EC50 (HIV-1 [4]; MT4 cells, HIV-1) [µM] | EC50 (HIV-2 [5]; MT4 cells, HIV-2) [µM]
1 | CCc1ccc(OP(=O)(N[C@@H](C)C(=O)OC)OCC2C=CC(n3cc(C)c(=O)[nH]c3=O)O2)cc1 (some centres unmarked) [Compound 323, 2′,3′-dideoxy-2′,3′-didehydrothymidine 5′-(p-ethylphenylmethoxyalaninyl) Phosphoramidate] | 0.06 | > 100 | 0.16 | 60 | 15.6 × 10^3 | 0.0032 | 0.07 | 0.057 | 50 | 0.063 | – | – | – | – | – | –
2 | CCCOP(=O)(N[C@@H](C)C(=O)OC)OC[C@@H]1C=C[C@H](n2cc(C)c(=O)[nH]c2=O)O1 (some centres unmarked) [Compound 326] | 135 | > 250 | > 230 | ≥ 250 | – | – | > 230 | 36 | – | 84 | – | – | – | – | – | –
3 | COC(=O)[C@H](C)NP(=O)(OCC1OC(n2cc(C)c(=O)[nH]c2=O)CC1N=[N+]=[N-])Oc1ccccc1 (stereo partly drawn) [Compound 462, 3′-Deoxy-3′-β-azidothymidine 5′-(phenylmethoxylalaninyl) phosphoramidate] | – | – | – | – | – | – | – | – | – | – | 30 | 121 | 40 | 27.5 | 33 | 11
4 | COC(=O)C(C)NP(=O)(OCC1OC(n2cc(C)c(=O)[nH]c2=O)CC1N=[N+]=[N-])Oc1cccc(C(F)(F)F)c1 (stereo not drawn) [Compound 536, 3′-Deoxy-3′β-azidothymidine 5′-(m-trifluoromethylphenylmethoxylalaninyl) phosphoramidate] | – | – | – | – | – | – | – | – | – | – | 3 | 104 | 2 | 1 | 0.45 | 0.9
5 | COC(=O)[C@H](C)NP(=O)(OCC1OC(n2cc(C)c(=O)[nH]c2=O)CC1N=[N+]=[N-])Oc1cc(Cl)cc(Cl)c1 (stereo partly drawn) [Compound 550, 3′-Deoxy-3′-β-azidothymidine 5′-(3,5-dichlorophenylmethoxylalaninyl) phosphoramidate] | – | – | – | – | – | – | – | – | – | – | 12 | 98 | 3 | 1.4 | 0.5 | 1
6 | CCOP(=O)(N[C@@H](C)C(=O)OC)OC[C@@H]1C=C[C@H](n2cc(C)c(=O)[nH]c2=O)O1 (some centres unmarked) [Compound 564] | > 48 | ≥ 250 | > 240 | ≥ 250 | – | – | > 48 | 28.5 | – | 62.6 | – | – | – | – | – | –
7 | COC(=O)[C@H](C)NP(=O)(OC)OC[C@@H]1C=C[C@H](n2cc(C)c(=O)[nH]c2=O)O1 (some centres unmarked) [Compound 740] | > 250 | > 250 | 50 | > 250 | – | – | 20 | 25.4 | – | 50.9 | – | – | – | – | – | –
8 | COC(=O)C(C)NP(=O)(OC[C@@H]1C=C[C@H](n2cc(C)c(=O)[nH]c2=O)O1)Oc1c(F)c(F)c(F)c(F)c1F (some centres unmarked) [Compound 779, 2′,3′-dideoxy-2′,3′-didehydrothymidine-5′-(2,3,4,5,6-pentafluorophenyl-N-methylalaninyl) phosphoramidate] | 8.5 | 82 | 3.7 | 115 | 1.25 × 10^3 | 0.064 | 2.5 | 1.72 | 80 | 4.01 | – | – | – | – | – | –
9 | COC(=O)C(Cc1ccccc1)NP(=O)(OC[C@@H]1C=C[C@H](n2cc(C)c(=O)[nH]c2=O)O1)Oc1ccccc1 (some centres unmarked) [Compound 863, 2′,3′-dideoxy-2′,3′-didehydrothymidine-5′-(phenyl N-methoxy-phenylalaninyl) phosphoramidate] | 0.33 | 34 | 1.35 | 216 | 31.2 × 10^3 | 0.016 | 0.8 | 0.2 | 500 | 0.4 | – | – | – | – | – | –
10 | COC(=O)C(CC(C)C)NP(=O)(OCC1C=CC(n2cc(C)c(=O)[nH]c2=O)O1)Oc1ccccc1 (centres unmarked) [Compound 864, 2′,3′-dideoxy-2′,3′-didehydrothymidine-5′-(phenyl N-methoxy-leucinyl) phosphoramidate] | 0.4 | 62 | 2.23 | ≥ 250 | >62.5 × 10^3 | 0.016 | 1.1 | 0.2 | > 1000 | 0.5 | – | – | – | – | – | –
11 | COC(=O)C(NP(=O)(OCC1C=CC(n2cc(C)c(=O)[nH]c2=O)O1)Oc1ccccc1)C(C)C (centres unmarked) [Compound 865, 2′,3′-dideoxy-2′,3′-didehydrothymidine-5′-(phenyl N-methoxyvalinyl) phosphoramidate] | 4 | ≥ 250 | 12.5 | > 250 | >1.25 × 10^3 | 0.8 | 12.5 | 3.6 | > 1000 | 11.2 | – | – | – | – | – | –
12 | Cc1cn(C2CC(N=[N+]=[N-])C(CO)O2)c(=O)[nH]c1=O (centres unmarked) [Cpd 499] | – | – | – | – | – | – | – | – | – | – | > 250 | > 250 | 4 | 3 | 0.9 | 2.3
